Source: PubChem BioAssay AID1645848
In brackets after ≈: the same amount, converted by molar mass.

Conditions: buffer; pH 7.4; 6.0 h; 150.0 µM

| SMILES | solubility kinetic |
| --- | --- |
| CCN(CC)CCOc1ccc(Cc2ccccc2)cc1 | 8.35 µg/mL (≈ 29.5 µM) |
| O=C(Oc1ccc[nH]c1=O)c1cc([N+](=O)[O-])cc([N+](=O)[O-])c1 | > 45 µg/mL |
| Cn1c(=O)c2c(nc(Cl)n2Cc2ccc(Cl)cc2)n(C)c1=O | 2.15 µg/mL (≈ 6.32 µM) |
| Nc1c(-c2ccccc2)cc[nH]c1=O | 12.9 µg/mL (≈ 69.1 µM) |
| CC(C)c1ccccc1-c1ncc(F)c(NCc2ccc(-c3cccnc3)s2)n1 | 0.132 µg/mL (≈ 0.326 µM) |
| CN[C@@H]1C[C@@H](c2ccc(Cl)c(Cl)c2)c2ccccc21 | > 43 µg/mL |
| CCOc1ccc(CCNC(=O)c2cc3sccc3n2Cc2ccc(F)cc2F)cc1OCC | < 1 µg/mL |
| Cc1cc(S(=O)(=O)Nc2cnccc2C(=O)Nc2nc(-c3ccccc3)cs2)c(C)o1 | > 67 µg/mL |
| CC1=C(C(=O)NCc2ccccc2)C(c2ccccc2Br)N=C(Nc2nc3ccccc3o2)N1 (centres undefined) | < 1 µg/mL |
| COc1cccc(NS(=O)(=O)c2ccc(NCc3cccc(OC)c3O)cc2)c1 | 1.92 µg/mL (≈ 4.64 µM) |
| O=c1cc(-c2ccccc2)oc2cc(O)cc(O)c12 | < 1 µg/mL |
| Cc1noc(C)c1-c1cc2c(cc(C)n2C)c(-c2cnn(C)c2)n1 | 15.2 µg/mL (≈ 47.2 µM) |
| COC(=O)c1ccc(Oc2nc3c(c(=O)n(C)c(=O)n3C)n2CCC(C)C)cc1 | < 1 µg/mL |
| O=C1CCCC2=C1C(c1[nH]ncc1Cl)N=C(Nc1nc3ccc(F)cc3o1)N2 (centres undefined) | 1.53 µg/mL (≈ 3.81 µM) |
| CCOC(=O)c1ccc(N2C(=O)c3n[nH]c(-c4cccs4)c3C2c2ccc(Cl)cc2Cl)cc1 (centres undefined) | < 1 µg/mL |
| O=S(=O)(Nc1cccc2ccncc12)c1ccc(NCc2cccc(Cl)c2O)cc1 | 4.67 µg/mL (≈ 10.6 µM) |
| Cc1ccc(S(=O)(=O)Nc2cncc(C(=O)Nc3nc(-c4ccccc4)cs3)c2)cc1 | < 1 µg/mL |
| Fc1ccc(Nc2nc(-c3ccccc3)nc3ccccc23)cc1F | < 1 µg/mL |
| CN(Cc1cccs1)c1ncnc2ccc(-c3ccc4c(c3)OCO4)cc12 | < 1 µg/mL |
| COc1ccc(-n2nc(C3CCN([S+](=O)([O-])c4c(C)noc4C)CC3)[nH]c2=O)cc1 | < 1 µg/mL |
| N#Cc1ccc(NS(=O)(=O)c2ccc(NC(=O)Cc3ccc(Cl)c(Cl)c3)cc2)cc1 | < 1 µg/mL |
| CC[C@H]1CN2CCc3cc(OC)c(OC)cc3[C@@H]2C[C@@H]1C[C@H]1NCCc2cc(OC)c(OC)cc21 | > 71 µg/mL |

| SMILES | solubility kinetic |
| --- | --- |
| Cc1ccccc1S(=O)(=O)Nc1cnccc1C(=O)Nc1nc(-c2ccccc2)cs1 | 49.9 µg/mL (≈ 111 µM) |
| Nc1ncccc1-c1nc2ccc(-c3ccccc3)nc2n1-c1ccc(C2(N)CCC2)cc1 | > 64 µg/mL |
| Cc1noc(C)c1C(=O)N1CCC2(CCCN(Cc3ccccc3)C2)CC1 | < 1 µg/mL |
| Cn1ccc2c(C(=O)NCc3cccnc3)nc(-c3ccc(CO)cc3)cc21 | > 82 µg/mL |
| CC(C)N(CCCNC(=O)Nc1ccc(C(C)(C)C)cc1)C[C@H]1O[C@@H](n2cc(Br)c3c(N)ncnc32)[C@H](O)[C@@H]1O | 73 µg/mL (≈ 118 µM) |
| CCC[C@H](NC(=O)/C(C#N)=C/c1cccc(Br)n1)c1ccccc1 | < 1 µg/mL |
| Cc1ccc(S(=O)(=O)Nc2ccncc2C(=O)Nc2nc(-c3ccccc3)cs2)cc1 | < 1 µg/mL |
| O=C(NCCN1CCOCC1)C1CC(=O)N(c2n[nH]c3cc(Br)ccc23)C1 (centres undefined) | 32.5 µg/mL (≈ 74.5 µM) |
| CCOC(=O)c1ccc(N2C(=O)c3n[nH]c(-c4cccs4)c3C2c2ccc(OCC)cc2)cc1 (centres undefined) | < 1 µg/mL |
| Cc1ccc(S(=O)(=O)Nc2ccc(C)cc2C(=O)Nc2nc(-c3ccccc3)cs2)cc1 | < 1 µg/mL |
| Cc1ccc(-n2nc3c(=O)n(CCCC(=O)NC(C)c4ccccc4)nc(C)c3c2C)cc1 (centres undefined) | 4.59 µg/mL (≈ 10.4 µM) |
| Cc1ccc(S(=O)(=O)Nc2ccc(Cl)c(C(=O)Nc3nc(-c4ccccc4)cs3)c2)cc1 | < 1 µg/mL |
| CC(C)c1ccc(S(=O)(=O)c2cnc(SCC(=O)Nc3ccc4c(c3)OCCO4)[nH]c2=O)cc1 | > 74 µg/mL |
| O=c1c2ccccc2nc(/C=C/c2cccnc2)n1Cc1ccccc1 | 1.8 µg/mL (≈ 5.29 µM) |
| O=S(=O)(Nc1cccc2cccnc12)c1ccc(NCc2ccc(Br)cc2O)cc1 | < 1 µg/mL |
| COc1ccc(NC(=O)c2cccnc2)cc1S(=O)(=O)Nc1ccc(Br)cc1 | 33.5 µg/mL (≈ 72.5 µM) |
| COc1ccc(Nc2cnc3ccc(-c4ccc(OC)c(OC)c4)nn23)cc1 | < 1 µg/mL |
| Cc1csc2c1c(=O)n(O)c(=O)n2Cc1ccccc1 | > 43 µg/mL |
| COc1ccc(NC(=O)c2ccc[nH]2)cc1S(=O)(=O)Nc1ccc(Br)cc1 | < 1 µg/mL |
| COCCN1CCNc2nc(COc3ccc(C(C)C)cc3)n(Cc3ccccc3)c2C1=O | < 1 µg/mL |
| O=C(NCc1cccs1)c1cn2cc(-c3ccccc3)sc2n1 | < 1 µg/mL |
| O=C(Nc1nc(-c2ccccc2)cs1)c1ccncc1NS(=O)(=O)c1c(F)cc(F)cc1F | 58 µg/mL (≈ 118 µM) |

| SMILES | solubility kinetic |
| --- | --- |
| O=C(c1csnn1)N1CCC2(CCCN(C(c3ccccc3)c3ccccc3)C2)CC1 | < 1 µg/mL |
| Cc1ccc(S(=O)(=O)NCC(=O)Nc2nc(-c3ccccc3)cs2)cc1 | < 1 µg/mL |
| COc1ccc(C2c3c(oc4ccc(Cl)cc4c3=O)C(=O)N2CCCN(C)C)cc1OC (centres undefined) | > 67 µg/mL |
| Cc1cccc2oc(NC3=NC(c4[nH]ncc4Cl)C4=C(CCCC4=O)N3)nc12 (centres undefined) | < 1 µg/mL |
| Brc1ccc(-c2csc(N3CCCCC3)n2)cc1 | < 1 µg/mL |
| CCOC(=O)c1ccnc(CNCC(=O)N(CC)CCN(C)C)c1 | > 50 µg/mL |
| O=C(Nc1nc(-c2ccc(Cl)s2)cs1)c1cccs1 | < 1 µg/mL |
| CCCCCCOc1ccc(OC(=O)c2ccncc2)cc1 | < 1 µg/mL |
| Cc1cc(N)c2cc(NC(=O)Nc3ccc4nc(C)cc(N)c4c3)ccc2n1.Cl.Cl | < 1 µg/mL |
| CCc1oc2ccccc2c1C(=O)c1cc(Br)c(O)c(Br)c1 | > 62 µg/mL |
| c1cc(-c2cc(-c3ccncc3)c3cncn3c2)c2cc[nH]c2c1 | < 1 µg/mL |
| COc1ccccc1-c1nnc2sc(-c3ccc(N(C)C)cc3)nn12 | 1.04 µg/mL (≈ 2.96 µM) |
| Cc1nc([C@](C)(O)CO)sc1-c1cnc(N)c(O[C@H](C)c2cc(F)ccc2-n2nccn2)c1 | 37.3 µg/mL (≈ 79.2 µM) |
| CCOC(=O)c1c[nH]c2c3c(ccc2c1=O)CCCC3 | 34 µg/mL (≈ 125 µM) |
| Cc1ccc(S(=O)(=O)Nc2ccccc2C(=O)Nc2cnc(-c3ccccc3)cn2)cc1 | < 1 µg/mL |
| O=[S+]([O-])(Nc1ccccc1)c1ccc(NCc2cccc(Cl)c2F)cc1 | < 1 µg/mL |
| N#Cc1cccc(S(=O)(=O)Nc2cnccc2C(=O)Nc2nc(-c3ccccc3)cs2)c1 | 34.3 µg/mL (≈ 74.3 µM) |
| CC(C)c1nc2oc3c(NCCN(C)C)ncnc3c2c2c1COC(C)(C)C2 | > 57 µg/mL |
| Cn1nnnc1Sc1ncnc2scc(-c3ccc(F)cc3)c12 | 15.3 µg/mL (≈ 44.5 µM) |
| O=C(Nc1nc(-c2ccccc2)cs1)c1ccncc1NS(=O)(=O)c1ccc2c(c1)CCC2 | 5.8 µg/mL (≈ 12.2 µM) |
| Cc1nc(-c2ccccc2)cc([C@H]2CN3CC[C@H]2C[C@@H]3CNC2CCOCC2)n1 | > 58 µg/mL |
| COc1ccccc1-c1nc(NCc2cnc(C)cn2)c2ccccc2n1 | > 53 µg/mL |

Results, then the molecule that gave them:

| solubility kinetic | SMILES |
| --- | --- |
| 1.08 µg/mL (≈ 2.91 µM) | CCCCc1ccc(NC(=O)c2ccc3c(c2)N(S(C)(=O)=O)CC3)cc1 |
| < 1 µg/mL | Cc1ccc(NS(=O)(=O)c2cccc(C(=O)Nc3nc(-c4ccccc4)cs3)c2)cc1 |
| < 1 µg/mL | CSc1nn(Cc2cccc(C)c2)c(N)c1S(=O)(=O)c1ccccc1 |
| < 1 µg/mL | CCCC1=Nc2cc(C(=O)NC3CCCC3)ccc2Sc2ccc(C)cc21 |
| < 1 µg/mL | COc1ccccc1C(=O)Nc1ccccc1C(=O)Nc1cccc(C(F)(F)F)c1 |
| < 1 µg/mL | Cc1cccc(CS(=O)(=O)c2ncc(Cl)c(C(=O)Nc3nc4ccc(F)cc4s3)n2)c1 |
| < 1 µg/mL | O=C(Nc1ncc(Cc2ccc(C(F)(F)F)cc2)s1)c1cccc(-c2ccccc2)c1 |
| > 61 µg/mL | CC(=O)c1c(C)[nH]c(C(=O)Nc2cccc([S+](=O)([O-])Nc3cccnc3)c2)c1C |
| < 1 µg/mL | FC(F)(F)c1cc(-c2ccc(CNc3nc(-c4ccccc4C(F)(F)F)nc4ccsc34)cc2)ccn1 |
| 44 µg/mL (≈ 105 µM) | Cc1cnc(CNc2nc(-c3cccc(NS(C)(=O)=O)c3)nc3ccccc23)cn1 |
| < 1 µg/mL | FC(F)(F)c1cccc(N2CCN(C(=S)Nc3cc4ccccc4cn3)CC2)c1 |
| < 1 µg/mL | COc1ccc(Nc2ncc(C(=O)Nc3cccc(Cl)c3)c3ccccc23)cc1 |
| < 1 µg/mL | COc1cccc(CNc2ccc(C(=O)Nc3nccs3)cc2)c1O |
| < 1 µg/mL | O=C(Nc1nc(-c2ccccc2)cs1)c1ccncc1NS(=O)(=O)c1ccc(C(F)(F)F)cc1 |
| 26.3 µg/mL (≈ 70.3 µM) | CC(C)(C)C(=O)N1CCN(c2nccc(Nc3ccccc3Cl)n2)CC1 |
| > 51 µg/mL | COc1ccc(-n2nc(C3CCCN(C(=O)C4CC4)C3)[nH]c2=O)cc1 (centres undefined) |
| 25 µg/mL (≈ 68.3 µM) | CCNC(=O)c1ccc(-c2ccc3ncnc(NCC4CCCO4)c3c2)o1 (centres undefined) |

| solubility kinetic | SMILES |
| --- | --- |
| 10.8 µg/mL (≈ 24.6 µM) | CCOC(=O)C1CCN(C(=O)C(C)(C)NC(=O)Nc2ccc(-c3ccccc3)cc2)CC1 |
| 14.6 µg/mL (≈ 48.3 µM) | Cc1ccc(-c2nnc(N3CCC(C(N)=O)CC3)s2)cc1 |
| > 68 µg/mL | CNC(=O)c1nn(C)c2c1C(C)(C)Cc1cnc(Nc3ccc(N4CCN(C)CC4)cc3)nc1-2 |
| 6.4 µg/mL (≈ 16.2 µM) | Cc1ccnc(NC(=S)N2CCC(Nc3cccc(C(F)(F)F)c3)CC2)c1 |
| 29.8 µg/mL (≈ 91.1 µM) | CC(=O)NCc1ccc(-c2csc(Nc3cccc(C)c3)n2)o1 |
| 43.2 µg/mL (≈ 106 µM) | CCOC(=O)C1CCN(C(=O)C2(NC(=O)Nc3ccccc3Cl)CCC2)CC1 |
| > 42 µg/mL | CC(C)(C)n1cnc2cc(C(=O)N3CCCCC3)ccc21 |
| 42.8 µg/mL (≈ 127 µM) | c1ccc(Nc2cc3c(cn2)CN(Cc2cccs2)CCN3)cc1 |
| 15.6 µg/mL (≈ 35.8 µM) | O=C(Nc1ccc(S(=O)(=O)Nc2nccs2)cc1)c1ccnc(-c2ccccc2)c1 |
| < 1 µg/mL | CCOC(=O)N1CCc2c(sc(NCc3sccc3C)c2C(=O)Nc2cc(Cl)ccc2OC)C1 |
| > 56 µg/mL | O=S(=O)(Nc1nccs1)c1ccc(NCc2cccc(F)c2O)cc1 |
| < 1 µg/mL | Cc1ccc2c(c1)N(S(=O)(=O)c1cc(-c3onc(C)c3C)ccc1C)CCO2 |
| > 47 µg/mL | COc1cccc(-c2csc(N3CCC(C(N)=O)CC3)n2)c1 |
| > 56 µg/mL | Nc1nc(N)c2c(OCC3CCN(Cc4ccccc4F)CC3)cccc2n1 |
| < 1 µg/mL | Cc1ccc(NC(=O)N2CCN(c3nc(N)nc4sc(-c5cccnc5)nc34)CC2)cc1 |
| < 1 µg/mL | Cc1ccccc1S(=O)(=O)N1CCc2cc(-c3nc(NC(=O)Cc4ccc5c(c4)OCO5)sc3C)ccc21 |
